Assay results: the NIST ThermoML archive (doi:10.1016/j.jct.2006.03.015)

Key:
[1] = Crystal; visual observation
[2] = mn = molality of the nth substance listed, in mol/kg; details: 101 kPa, Liquid; for apparent molar heat capacity: Flow calorimetry

CC(=O)N[C@@H](CCCCN)C(N)=O.Cl [(S)-2-acetamido-6-aminohexanamide hydrochloride]
Details | Normal melting temperature [°C]
[1] | 144.4

CC(=O)N[C@@H](CCCCN)C(N)=O.Cl [(S)-2-acetamido-6-aminohexanamide hydrochloride] + O
[2]
Details | apparent molar heat capacity [J/K/mol] | mass density [kg/m3]
288.15 K, m1 = 0.02301 | 333.4 | 1000.28
288.15 K, m1 = 0.02858 | 336.3 | 1000.57
288.15 K, m1 = 0.0372 | 339.9 | 1001.01
288.15 K, m1 = 0.04378 | 339.8 | 1001.34
288.15 K, m1 = 0.05396 | 339.8 | 1001.86
288.15 K, m1 = 0.06411 | 343.1 | 1002.37
288.15 K, m1 = 0.07273 | 342 | 1002.8
288.15 K, m1 = 0.08089 | 341.3 | 1003.21
288.15 K, m1 = 0.08886 | 340.4 | 1003.6
288.15 K, m1 = 0.0972 | 343.1 | 1004.02
298.15 K, m1 = 0.02795 | 377.8 | 998.439
298.15 K, m1 = 0.03712 | 377.9 | 998.893
298.15 K, m1 = 0.04507 | 379.4 | 999.283
298.15 K, m1 = 0.05411 | 379.1 | 999.729
298.15 K, m1 = 0.06514 | 378.6 | 1000.27
298.15 K, m1 = 0.07363 | 379 | 1000.68
298.15 K, m1 = 0.08347 | 378.8 | 1001.16
298.15 K, m1 = 0.08995 | 379 | 1001.47
313.15 K, m1 = 0.02397 | 404.5 | 993.394
313.15 K, m1 = 0.03035 | 411.1 | 993.703
313.15 K, m1 = 0.03705 | 406.4 | 994.027
313.15 K, m1 = 0.04583 | 409.4 | 994.449
313.15 K, m1 = 0.05213 | – | 994.754
313.15 K, m1 = 0.05469 | 404 | –
313.15 K, m1 = 0.05752 | – | 995.015
313.15 K, m1 = 0.06361 | 405.8 | 995.306
313.15 K, m1 = 0.06804 | 408 | 995.516
313.15 K, m1 = 0.07802 | 406.1 | 995.99
328.15 K, m1 = 0.02685 | 429 | 986.984
328.15 K, m1 = 0.03581 | 428 | 987.412
328.15 K, m1 = 0.04352 | 428.9 | 987.778
328.15 K, m1 = 0.05273 | 429.2 | 988.207
328.15 K, m1 = 0.06308 | 431.9 | 988.699
328.15 K, m1 = 0.07041 | 431.9 | 989.042
328.15 K, m1 = 0.08088 | 432.4 | 989.527
328.15 K, m1 = 0.0877 | 433.2 | 989.846

CC(=O)N[C@@H](CCC(N)=O)C(N)=O [(S)-2-acetamidopentanediamide]
Details | Normal melting temperature [°C]
[1] | 192.4

CC(=O)N[C@@H](CCC(N)=O)C(N)=O [(S)-2-acetamidopentanediamide] + O
[2]
Details | apparent molar heat capacity [J/K/mol] | mass density [kg/m3]
288.15 K, m1 = 0.03981 | 353.8 | 1000.96
288.15 K, m1 = 0.04349 | 350.3 | 1001.13
288.15 K, m1 = 0.0507 | 353.7 | 1001.46
288.15 K, m1 = 0.05943 | 355.1 | 1001.86
288.15 K, m1 = 0.06967 | 356.4 | 1002.33
288.15 K, m1 = 0.07857 | 350.8 | 1002.75
288.15 K, m1 = 0.08453 | 356.6 | 1003.03
288.15 K, m1 = 0.09265 | 354.1 | 1003.38
288.15 K, m1 = 0.1008 | 353.9 | 1003.78
298.15 K, m1 = 0.04537 | 377.9 | 999.104
298.15 K, m1 = 0.05783 | 383.7 | 999.659
298.15 K, m1 = 0.06765 | 378 | 1000.1
298.15 K, m1 = 0.08263 | 379.9 | 1000.77
298.15 K, m1 = 0.09722 | 382.3 | 1001.41
298.15 K, m1 = 0.1055 | 382.8 | 1001.79
298.15 K, m1 = 0.1217 | 379.5 | 1002.51
298.15 K, m1 = 0.133 | 381.1 | 1003.01
298.15 K, m1 = 0.1455 | 382.4 | 1003.56
313.15 K, m1 = 0.03917 | 407.2 | –
313.15 K, m1 = 0.04565 | 409.1 | 994.219
313.15 K, m1 = 0.05555 | 410.8 | 994.65
313.15 K, m1 = 0.06371 | 410.7 | 995.007
313.15 K, m1 = 0.07398 | 410.7 | 995.463
313.15 K, m1 = 0.08191 | 408.9 | 995.809
313.15 K, m1 = 0.08959 | 408.6 | 996.143
313.15 K, m1 = 0.1002 | 409 | 996.596
328.15 K, m1 = 0.03787 | 430.2 | 987.321
328.15 K, m1 = 0.04577 | 430 | 987.659
328.15 K, m1 = 0.05585 | 431.2 | 988.092
328.15 K, m1 = 0.0626 | 431.6 | 988.383
328.15 K, m1 = 0.07189 | 432.4 | 988.783
328.15 K, m1 = 0.08069 | 430.4 | 989.147
328.15 K, m1 = 0.0903 | 429.9 | 989.565
328.15 K, m1 = 0.1056 | – | 990.212

CC(=O)N[C@@H](CC(N)=O)C(N)=O [(S)-2-acetamidosuccinamide]
Details | Normal melting temperature [°C]
[1] | 244

CC(=O)NC(=O)[C@@H](N)Cc1ccc(O)cc1 [N-Acetyl-L-tyrosinamide]
Details | Normal melting temperature [°C]
[1] | 225

CC(=O)NC(=O)[C@@H](N)Cc1ccc(O)cc1 [N-Acetyl-L-tyrosinamide] + O
[2]
Details | apparent molar heat capacity [J/K/mol] | mass density [kg/m3]
288.15 K, m1 = 0.01175 | 508.1 | 999.692
288.15 K, m1 = 0.012 | 504.2 | 999.707
288.15 K, m1 = 0.01302 | 504.9 | 999.758
288.15 K, m1 = 0.01344 | 509 | 999.773
288.15 K, m1 = 0.01395 | 505.4 | 999.805
288.15 K, m1 = 0.01495 | 502.3 | 999.855
288.15 K, m1 = 0.01591 | 501.9 | 999.904
288.15 K, m1 = 0.01705 | 500.4 | 999.955
288.15 K, m1 = 0.0179 | 501.6 | 1000
288.15 K, m1 = 0.01902 | 503.4 | 1000.05
288.15 K, m1 = 0.01984 | 502.6 | 1000.1
298.15 K, m1 = 0.01196 | 517 | 997.637
298.15 K, m1 = 0.013 | 517.7 | 997.684
298.15 K, m1 = 0.01383 | 515.6 | 997.725
298.15 K, m1 = 0.01493 | 517 | 997.781
298.15 K, m1 = 0.01497 | – | 997.785
298.15 K, m1 = 0.01592 | 516.9 | 997.83
298.15 K, m1 = 0.017 | – | 997.885
298.15 K, m1 = 0.01809 | 519.4 | 997.94
298.15 K, m1 = 0.01905 | – | 997.984
298.15 K, m1 = 0.02018 | 511.5 | 998.035
313.15 K, m1 = 0.01197 | 542.3 | 992.782
313.15 K, m1 = 0.01299 | 543.8 | 992.827
313.15 K, m1 = 0.01401 | 543 | 992.874
313.15 K, m1 = 0.01501 | 545.3 | 992.925
313.15 K, m1 = 0.01596 | 546.3 | 992.967
313.15 K, m1 = 0.01693 | 541.4 | 993.013
313.15 K, m1 = 0.01787 | 543.5 | 993.057
313.15 K, m1 = 0.01892 | 542.6 | 993.101
328.15 K, m1 = 0.01201 | 553.5 | 986.242
328.15 K, m1 = 0.01295 | 552.2 | 986.289
328.15 K, m1 = 0.01394 | 549.9 | 986.33
328.15 K, m1 = 0.0149 | 556.4 | 986.378
328.15 K, m1 = 0.0159 | 554.4 | 986.421
328.15 K, m1 = 0.01694 | 552 | 986.462
328.15 K, m1 = 0.01796 | 555.6 | 986.514
328.15 K, m1 = 0.0189 | 555.1 | 986.548
